# Test results as given in PMC5218480 (PLoS ONE, 2017).
# Tested on: MV-4-11 cells
# Assay: Gene expression microarray analysis (Affymetrix PrimeView) and GSEA
# Format: cell-based, human
# Parameters: RFU PODN (11730768_x_at) / Fold change /veh PODN (11730768_x_at) / RFU LINC00158 (11744669_a_at) / Fold change /veh LINC00158 (11744669_a_at) / RFU DUSP10 (11751237_a_at) / Fold change /veh DUSP10 (11751237_a_at) / RFU ID3 (11757404_x_at) / Fold change /veh ID3 (11757404_x_at) / RFU PLEKHG5 (11737974_s_at) / Fold change /veh PLEKHG5 (11737974_s_at) / RFU LRRC4B (11730491_at) / Fold change /veh LRRC4B (11730491_at) / RFU GIMAP4 (11747438_a_at) / Fold change /veh GIMAP4 (11747438_a_at) / RFU KRT8 (11758183_x_at) / Fold change /veh KRT8 (11758183_x_at) / RFU CNN1 (11734310_a_at) / Fold change /veh CNN1 (11734310_a_at) / RFU VPS37D (11726825_at) / Fold change /veh VPS37D (11726825_at) / RFU C10orf10 (11716522_x_at) / Fold change /veh C10orf10 (11716522_x_at) / RFU KIR2DL2 /// KIR2DL4 /// KIR2DL5A /// KIR2DL5B /// KIR2DS1 /// KIR2DS2 /// KIR2DS3 /// KIR2DS4 /// KIR3DL3 /// KIR3DL3 /// KIR3DS1 (11738374_at) / Fold change /veh KIR2DL2 /// KIR2DL4 /// KIR2DL5A /// KIR2DL5B /// KIR2DS1 /// KIR2DS2 /// KIR2DS3 /// KIR2DS4 /// KIR3DL3 /// KIR3DL3 /// KIR3DS1 (11738374_at) / RFU C1QL1 (11718748_at) / Fold change /veh C1QL1 (11718748_at) / RFU TMPRSS4 (11747572_a_at) / Fold change /veh TMPRSS4 (11747572_a_at) / RFU HAMP (11756126_x_at) / Fold change /veh HAMP (11756126_x_at) / RFU RNFT2 (11725882_a_at) / Fold change /veh RNFT2 (11725882_a_at) / RFU NR4A2 (11747474_a_at) / Fold change /veh NR4A2 (11747474_a_at) / RFU ABCC12 (11746883_a_at) / Fold change /veh ABCC12 (11746883_a_at) / RFU TMEM136 (11760407_x_at) / Fold change /veh TMEM136 (11760407_x_at) / RFU CLDN22 /// WWC2 (11732394_at) / Fold change /veh CLDN22 /// WWC2 (11732394_at) / RFU HLA-DPB1 (11760878_x_at) / Fold change /veh HLA-DPB1 (11760878_x_at) / RFU SPINT1 (11716480_a_at) / Fold change /veh SPINT1 (11716480_a_at) / RFU GAP43 (11754022_s_at) / Fold change /veh GAP43 (11754022_s_at) / RFU A4GNT (11735810_at) / Fold change /veh A4GNT (11735810_at) / RFU PRB3 (11715151_x_at) / Fold change /veh PRB3 (11715151_x_at) / RFU TUBB4B (11761932_at) / Fold change /veh TUBB4B (11761932_at) / RFU CAPN14 (11732068_a_at) / Fold change /veh CAPN14 (11732068_a_at) / RFU TMCC2 (11721928_a_at) / Fold change /veh TMCC2 (11721928_a_at) / RFU IRGQ (11745062_a_at) / Fold change /veh IRGQ (11745062_a_at) / RFU FAM174B (11720279_a_at) / Fold change /veh FAM174B (11720279_a_at) / RFU TMPRSS4 (11748680_a_at) / Fold change /veh TMPRSS4 (11748680_a_at) / RFU FAM212B (11763350_a_at) / Fold change /veh FAM212B (11763350_a_at) / RFU PLEKHG5 (11743358_a_at) / Fold change /veh PLEKHG5 (11743358_a_at) / RFU ZSCAN30 (11745921_a_at) / Fold change /veh ZSCAN30 (11745921_a_at) / RFU CMKLR1 (11741424_a_at) / Fold change /veh CMKLR1 (11741424_a_at) / RFU LOC101060620 /// MAPK8IP1 (11723275_at) / Fold change /veh LOC101060620 /// MAPK8IP1 (11723275_at) / RFU SPTSSB (11747773_x_at) / Fold change /veh SPTSSB (11747773_x_at) / RFU PRSS12 (11739890_at) / Fold change /veh PRSS12 (11739890_at) / RFU BIN1 (11741810_x_at) / Fold change /veh BIN1 (11741810_x_at) / RFU WNT11 (11732464_a_at) / Fold change /veh WNT11 (11732464_a_at) / RFU C10orf10 (11716521_a_at) / Fold change /veh C10orf10 (11716521_a_at) / RFU C5orf56 (11738089_at) / Fold change /veh C5orf56 (11738089_at) / RFU CYB561 (11721691_x_at) / Fold change /veh CYB561 (11721691_x_at) / RFU ANKRD19P (11752326_a_at) / Fold change /veh ANKRD19P (11752326_a_at) / RFU OR2T12 /// OR2T33 /// OR2T8 (11738714_s_at) / Fold change /veh OR2T12 /// OR2T33 /// OR2T8 (11738714_s_at) / RFU VCAN (11748164_a_at) / Fold change /veh VCAN (11748164_a_at) / RFU JSRP1 (11732532_at) / Fold change /veh JSRP1 (11732532_at) / RFU KRTAP10-11 (11738290_x_at) / Fold change /veh KRTAP10-11 (11738290_x_at) / RFU MYO3A (11730013_a_at) / Fold change /veh MYO3A (11730013_a_at) / RFU EBF3 (11725865_a_at) / Fold change /veh EBF3 (11725865_a_at) / RFU CAMK2N1 (11719241_x_at) / Fold change /veh CAMK2N1 (11719241_x_at) / RFU C5orf56 (11738088_a_at) / Fold change /veh C5orf56 (11738088_a_at) / RFU OLFML3 (11715873_a_at) / Fold change /veh OLFML3 (11715873_a_at) / RFU LOC100653217 /// NTM (11731650_a_at) / Fold change /veh LOC100653217 /// NTM (11731650_a_at) / RFU MAPK11 (11762145_a_at) / Fold change /veh MAPK11 (11762145_a_at) / RFU FIZ1 (11724087_x_at) / Fold change /veh FIZ1 (11724087_x_at) / RFU OASL (11726364_x_at) / Fold change /veh OASL (11726364_x_at) / RFU SOX15 (11748057_x_at) / Fold change /veh SOX15 (11748057_x_at) / RFU CD79A (11719716_a_at) / Fold change /veh CD79A (11719716_a_at) / RFU HIST1H1D (11736915_at) / Fold change /veh HIST1H1D (11736915_at) / RFU CASKIN2 (11723855_a_at) / Fold change /veh CASKIN2 (11723855_a_at) / RFU LOC730098 (11760151_x_at) / Fold change /veh LOC730098 (11760151_x_at) / RFU OR4N2 (11742367_at) / Fold change /veh OR4N2 (11742367_at) / RFU PRRT2 (11749266_a_at) / Fold change /veh PRRT2 (11749266_a_at) / RFU SNX32 (11753110_a_at) / Fold change /veh SNX32 (11753110_a_at) / RFU CDHR5 (11726645_a_at) / Fold change /veh CDHR5 (11726645_a_at) / RFU RCAN1 (11760418_a_at) / Fold change /veh RCAN1 (11760418_a_at) / RFU FAM167A (11723789_a_at) / Fold change /veh FAM167A (11723789_a_at) / RFU FAM26E (11764081_at) / Fold change /veh FAM26E (11764081_at) / RFU ISYNA1 (11749810_s_at) / Fold change /veh ISYNA1 (11749810_s_at) / RFU ACY1 (11761880_at) / Fold change /veh ACY1 (11761880_at) / RFU 11764098_at / Fold change /veh 11764098_at / RFU SAMD14 (11745864_x_at) / Fold change /veh SAMD14 (11745864_x_at) / RFU NPB (11741838_a_at) / Fold change /veh NPB (11741838_a_at) / RFU TMPRSS6 (11731388_a_at) / Fold change /veh TMPRSS6 (11731388_a_at) / RFU KRTAP10-2 (11738614_at) / Fold change /veh KRTAP10-2 (11738614_at) / RFU ARHGAP8 /// PRR5-ARHGAP8 (11727945_x_at) / Fold change /veh ARHGAP8 /// PRR5-ARHGAP8 (11727945_x_at) / RFU KRTAP5-7 /// NADSYN1 (11734609_at) / Fold change /veh KRTAP5-7 /// NADSYN1 (11734609_at) / RFU RASL12 (11751679_a_at) / Fold change /veh RASL12 (11751679_a_at) / RFU CDKN2B (11736163_a_at) / Fold change /veh CDKN2B (11736163_a_at) / RFU PRF1 (11729649_at) / Fold change /veh PRF1 (11729649_at) / RFU, ZNF638 /// ZNF638-IT1 / Fold change vs veh, ZNF638 /// ZNF638-IT1 / RFU, PANK3 / Fold change vs veh, PANK3 / RFU, SH3YL1 / Fold change vs veh, SH3YL1 / RFU, ZEB2 / Fold change vs veh, ZEB2 / RFU, NRIP1 / Fold change vs veh, NRIP1 / RFU, PTTG1IP / Fold change vs veh, PTTG1IP / RFU, CAPN2 / Fold change vs veh, CAPN2 / RFU, MED14 / Fold change vs veh, MED14 / RFU, SNORA58 / Fold change vs veh, SNORA58 / RFU, C1orf63 / Fold change vs veh, C1orf63 / RFU, LRRFIP1 / Fold change vs veh, LRRFIP1 / RFU, NDUFAF7 / Fold change vs veh, NDUFAF7 / RFU, SLC12A2 / Fold change vs veh, SLC12A2 / RFU, IBTK / Fold change vs veh, IBTK / RFU, ESF1 / Fold change vs veh, ESF1 / Fold change vs veh, TMEM50B / RFU, TAOK1 / Fold change vs veh, TAOK1 / RFU, ACBD3 / Fold change vs veh, ACBD3 / RFU, TMA16 / Fold change vs veh, TMA16 / RFU, RWDD3 / Fold change vs veh, RWDD3 / RFU, BCAT1 / Fold change vs veh, BCAT1 / RFU, EDEM3 / Fold change vs veh, EDEM3 / RFU, TMEM33 / Fold change vs veh, TMEM33 / RFU, WDR75 / Fold change vs veh, WDR75 / RFU, AHCTF1 / Fold change vs veh, AHCTF1 / RFU, TFRC / Fold change vs veh, TFRC / RFU, ZDHHC17 / Fold change vs veh, ZDHHC17 / RFU, NOM1 / Fold change vs veh, NOM1 / RFU, ARL8B / Fold change vs veh, ARL8B / RFU, ZBTB11 / Fold change vs veh, ZBTB11 / RFU, TAMM41 / Fold change vs veh, TAMM41 / RFU, KIAA1704 /// LOC100996395 / Fold change vs veh, KIAA1704 /// LOC100996395 / RFU, ING1 / Fold change vs veh, ING1 / RFU, TRMT61B / Fold change vs veh, TRMT61B / RFU, FUBP3 / Fold change vs veh, FUBP3 / RFU, TP53 / Fold change vs veh, TP53 / RFU, TNKS2 / Fold change vs veh, TNKS2 / RFU, ZFP14 / Fold change vs veh, ZFP14 / RFU, ACTR2 / Fold change vs veh, ACTR2 / RFU, PPP3R1 / Fold change vs veh, PPP3R1 / RFU, PIK3R1 / Fold change vs veh, PIK3R1 / RFU, HNRNPA1 / Fold change vs veh, HNRNPA1 / RFU, RNF170 / Fold change vs veh, RNF170 / RFU, ZNF28 / Fold change vs veh, ZNF28 / RFU, RNGTT / Fold change vs veh, RNGTT / RFU, OGT / Fold change vs veh, OGT / RFU, BRD1 / Fold change vs veh, BRD1 / RFU, MARS / Fold change vs veh, MARS / RFU, ZNF655 / Fold change vs veh, ZNF655 / RFU, FAHD1 / Fold change vs veh, FAHD1 / RFU, BDP1 / Fold change vs veh, BDP1 / RFU, LRRCC1 / Fold change vs veh, LRRCC1 / RFU, ARID1A / Fold change vs veh, ARID1A / RFU, ZNF146 / Fold change vs veh, ZNF146 / RFU, ZNF330 / Fold change vs veh, ZNF330 / RFU, GPN3 / Fold change vs veh, GPN3 / RFU, C9orf123 / Fold change vs veh, C9orf123 / RFU, N4BP2L2 / Fold change vs veh, N4BP2L2 / RFU, ARFIP1 / Fold change vs veh, ARFIP1 / RFU, FAM179B / Fold change vs veh, FAM179B / RFU, BCL10 / Fold change vs veh, BCL10 / RFU, UHRF1BP1L / Fold change vs veh, UHRF1BP1L / RFU, BET1 / Fold change vs veh, BET1 / RFU, CNOT2 / Fold change vs veh, CNOT2 / RFU, ZNF268 / Fold change vs veh, ZNF268 / Fold change vs veh, ZNF507 / RFU, DGCR2 / Fold change vs veh, DGCR2 / RFU, WDSUB1 / Fold change vs veh, WDSUB1 / Fold change vs veh, HSP90B1 /// MIR3652 / RFU, ADSS / Fold change vs veh, ADSS / RFU, GK / Fold change vs veh, GK / RFU, ZNF148 / Fold change vs veh, ZNF148 / RFU, TAF9 / Fold change vs veh, TAF9 / RFU, SLC1A5 / Fold change vs veh, SLC1A5 / RFU, SLMO2 / Fold change vs veh, SLMO2 / RFU, ABCC4 / Fold change vs veh, ABCC4 / RFU, LOC101060439 /// RAP1B / Fold change vs veh, LOC101060439 /// RAP1B / RFU, RFX7 / Fold change vs veh, RFX7 / RFU, GTPBP10 / Fold change vs veh, GTPBP10 / RFU, CNEP1R1 / Fold change vs veh, CNEP1R1 / RFU, BIVM-ERCC5 /// ERCC5 / Fold change vs veh, BIVM-ERCC5 /// ERCC5 / RFU, ILF3 / Fold change vs veh, ILF3 / RFU 11762660_at / Fold change /veh 11762660_at / RFU VCAN (11757783_s_at) / Fold change /veh VCAN (11757783_s_at) / RFU DDX43 (11728927_at) / Fold change /veh DDX43 (11728927_at) / RFU KRT8 (11758188_x_at) / Fold change /veh KRT8 (11758188_x_at) / RFU NKD1 (11759106_at) / Fold change /veh NKD1 (11759106_at) / RFU SRD5A1 (11742802_a_at) / Fold change /veh SRD5A1 (11742802_a_at) / RFU TPSAB1 /// TPSB2 (11721975_s_at) / Fold change /veh TPSAB1 /// TPSB2 (11721975_s_at) / RFU GSTM3 (11746129_a_at) / Fold change /veh GSTM3 (11746129_a_at) / RFU IL23R (11737362_x_at) / Fold change /veh IL23R (11737362_x_at) / RFU TMEM51 (11727254_a_at) / Fold change /veh TMEM51 (11727254_a_at) / RFU PIWIL2 (11732686_x_at) / Fold change /veh PIWIL2 (11732686_x_at) / RFU ORM1 (11744905_x_at) / Fold change /veh ORM1 (11744905_x_at) / RFU CCDC152 (11743942_at) / Fold change /veh CCDC152 (11743942_at) / RFU ECM1 (11717891_a_at) / Fold change /veh ECM1 (11717891_a_at) / RFU IL23R (11748794_a_at) / Fold change /veh IL23R (11748794_a_at) / RFU TNFAIP8L3 (11732012_x_at) / Fold change /veh TNFAIP8L3 (11732012_x_at) / RFU MBOAT4 (11741988_at) / Fold change /veh MBOAT4 (11741988_at) / RFU 11764193_at / Fold change /veh 11764193_at / RFU TMEM53 (11763286_at) / Fold change /veh TMEM53 (11763286_at) / RFU MAGEB2 (11727129_at) / Fold change /veh MAGEB2 (11727129_at) / RFU TMEM200A (11744735_a_at) / Fold change /veh TMEM200A (11744735_a_at) / RFU CCDC152 (11751479_a_at) / Fold change /veh CCDC152 (11751479_a_at) / RFU FAM211A (11726209_a_at) / Fold change /veh FAM211A (11726209_a_at) / RFU RGS16 (11746705_a_at) / Fold change /veh RGS16 (11746705_a_at) / RFU VCAN (11755009_s_at) / Fold change /veh VCAN (11755009_s_at) / RFU RHOB (11743442_s_at) / Fold change /veh RHOB (11743442_s_at) / RFU RGS16 (11720943_a_at) / Fold change /veh RGS16 (11720943_a_at) / RFU RGS16 (11720944_at) / Fold change /veh RGS16 (11720944_at) / RFU, VPS4B / Fold change vs veh, VPS4B / RFU, CREB1 / Fold change vs veh, CREB1 / RFU, DNAJC13 / Fold change vs veh, DNAJC13 / RFU, GNAQ / Fold change vs veh, GNAQ / RFU, CDK5R1 / Fold change vs veh, CDK5R1 / RFU, ZRANB3 / Fold change vs veh, ZRANB3 / RFU, CUL4A / Fold change vs veh, CUL4A / RFU, CCNY / Fold change vs veh, CCNY / RFU, UFL1 / Fold change vs veh, UFL1 / RFU, COG3 / Fold change vs veh, COG3 / RFU, DIAPH2 / Fold change vs veh, DIAPH2 / RFU, SKA2 / Fold change vs veh, SKA2 / RFU, AFF3 / Fold change vs veh, AFF3 / RFU, LMF1 / Fold change vs veh, LMF1 / RFU, IPO11 / Fold change vs veh, IPO11 / RFU, DFFB / Fold change vs veh, DFFB / RFU, FOXP1 / Fold change vs veh, FOXP1 / RFU, CARD8 / Fold change vs veh, CARD8 / RFU, STRN3 / Fold change vs veh, STRN3 / RFU, ADK / Fold change vs veh, ADK / RFU, RASSF2 / Fold change vs veh, RASSF2 / RFU, WIPF1 / Fold change vs veh, WIPF1 / RFU, LARP1B / Fold change vs veh, LARP1B / RFU, RASA1 / Fold change vs veh, RASA1 / RFU, RB1 / Fold change vs veh, RB1 / RFU, PPFIA1 / Fold change vs veh, PPFIA1 / RFU, MAT2A / Fold change vs veh, MAT2A / RFU, CCT5 / Fold change vs veh, CCT5 / RFU, WDR92 / Fold change vs veh, WDR92 / RFU, CUX1 / Fold change vs veh, CUX1 / RFU, TTC7A / Fold change vs veh, TTC7A / RFU, TMEM135 / Fold change vs veh, TMEM135 / RFU, DEPTOR / Fold change vs veh, DEPTOR / RFU, CPM / Fold change vs veh, CPM / RFU, DNAJB6 / Fold change vs veh, DNAJB6 / RFU, CACNA2D3 / Fold change vs veh, CACNA2D3 / RFU, DTX4 / Fold change vs veh, DTX4 / RFU, TFCP2 / Fold change vs veh, TFCP2 / RFU, GMCL1 /// GMCL1P1 / Fold change vs veh, GMCL1 /// GMCL1P1 / RFU, AEBP2 / Fold change vs veh, AEBP2 / RFU, SNHG1 /// SNORD22 /// SNORD25 /// SNORD26 /// SNORD27 /// SNORD28 /// SNORD29 /// SNORD31 / Fold change vs veh, SNHG1 /// SNORD22 /// SNORD25 /// SNORD26 /// SNORD27 /// SNORD28 /// SNORD29 /// SNORD31 / Fold change (Aza/veh), C12orf56 (ProbeSet 11735607_a_at) / Fold change (ACY-1035/veh), C12orf56 (ProbeSet 11735607_a_at) / Fold change (Aza/veh), FGFR1OP (ProbeSet 11751329_s_at) / Fold change (ACY-1035/veh), FGFR1OP (ProbeSet 11751329_s_at) / Fold change (Aza/veh), VPS36 (ProbeSet 11739960_a_at) / Fold change (ACY-1035/veh), VPS36 (ProbeSet 11739960_a_at) / RFU SYPL1 (11715823_x_at) / Fold change /veh SYPL1 (11715823_x_at) / RFU IGFBP7 (11715501_s_at) / Fold change /veh IGFBP7 (11715501_s_at) / RFU REEP3 (11722064_at) / Fold change /veh REEP3 (11722064_at) / RFU IGLL1 (11728026_x_at) / Fold change /veh IGLL1 (11728026_x_at): dose or concentration left out as unconfirmed
# Conditions: ProbeSet 11740011_at; LIST B
smiles,measurement,value
Nc1ncn([C@@H]2O[C@H](CO)[C@@H](O)[C@H]2O)c(=O)n1 [azacitidine],"RFU, ZFP14",67.74 RFU
